Source: patent US8828908B2, “Herbicidally active bicyclic 1,3-dione compounds” (Syngenta Limited, priority 2007, dated 2014)

How the values were obtained:
Format in all cases: in vivo
Lolium perenne (LOLPE) [1] = assay: Example B post-emergence herbicidal greenhouse test; conditions: 360 h, evaluated after 15 days, 100=total damage to plant, 0=no damage
Procedure: (§1) Seeds of a variety of test species were sown in standard soil in pots. After cultivation for one day (pre-emergence) or after 10 days cultivation (post-emergence) under controlled conditions in a glasshouse, the plants were sprayed with an aqueous spray solution derived from the formulation of the technical active ingredient in 0.6 ml acetone and 45 ml formulation solution containing 10.6% Emulsogen EL (Registry number 61791-12-6), 42.2% N-methylpyrrolidone, 42.2% dipropylene glycol monomethyl ether (Registry number 34590-94-8) and 0.2% X-77 (Registry number 11097-66-8). The test plants were then grown in a greenhouse under optimum conditions until, 15 days later for post-emergence and 20 days for pre-emergence, the test was evaluated (100=total damage to plant; 0=no damage to plant).
(§2) Alopecurus myosuroides (ALOMY), Avena fatua (AVEFA), Lolium perenne (LOLPE), Setaria faberi (SETFA), Digitaria sanguinalis (DIGSA), Echinochloa crus-galli (ECHCG)

[2] = test system: Alopecurus myosuroides (ALOMY); assay: as above; conditions: 360 h, evaluated after 15 days, 100=total damage to plant, 0=no damage
Procedure: as §1, §2

[3] = test system: Echinochloa crus-galli (ECHCG); assay: as above; conditions: 360 h, evaluated after 15 days, 100=total damage to plant, 0=no damage
Procedure: as §1, §2

Setaria faberi (SETFA) [4] = assay: as above; conditions: 360 h, evaluated after 15 days, 100=total damage to plant, 0=no damage
Procedure: as §1, §2

[5] = test system: Digitaria sanguinalis (DIGSA); assay: as above; conditions: 360 h, evaluated after 15 days, 100=total damage to plant, 0=no damage
Procedure: as §1, §2

Avena fatua (AVEFA) [6] = assay: as above; conditions: 360 h, evaluated after 15 days, 100=total damage to plant, 0=no damage
Procedure: as §1, §2

Lolium perenne (LOLPE) [7] = assay: Example B pre-emergence herbicidal greenhouse test; conditions: 480 h, evaluated after 20 days, 100=total damage to plant, 0=no damage
Procedure: as §1, §2

[8] = test system: Alopecurus myosuroides (ALOMY); assay: Example B pre-emergence herbicidal greenhouse test; conditions: 480 h, evaluated after 20 days, 100=total damage to plant, 0=no damage
Procedure: as §1, §2

[9] = test system: Echinochloa crus-galli (ECHCG); assay: Example B pre-emergence herbicidal greenhouse test; conditions: 480 h, evaluated after 20 days, 100=total damage to plant, 0=no damage
Procedure: as §1, §2

Setaria faberi (SETFA) [10] = assay: Example B pre-emergence herbicidal greenhouse test; conditions: 480 h, evaluated after 20 days, 100=total damage to plant, 0=no damage
Procedure: as §1, §2

[11] = test system: Digitaria sanguinalis (DIGSA); assay: Example B pre-emergence herbicidal greenhouse test; conditions: 480 h, evaluated after 20 days, 100=total damage to plant, 0=no damage
Procedure: as §1, §2

Avena fatua (AVEFA) [12] = assay: Example B pre-emergence herbicidal greenhouse test; conditions: 480 h, evaluated after 20 days, 100=total damage to plant, 0=no damage
Procedure: as §1, §2

SMILES	pest or weed control at 125 g/ha (Lolium perenne (LOLPE) [1])	pest or weed control at 125 g/ha [2]	pest or weed control at 125 g/ha [3]	pest or weed control at 125 g/ha (Setaria faberi (SETFA) [4])	pest or weed control at 125 g/ha [5]	pest or weed control at 125 g/ha (Avena fatua (AVEFA) [6])	pest or weed control at 250 g/ha (Lolium perenne (LOLPE) [7])	pest or weed control at 250 g/ha [8]	pest or weed control at 250 g/ha [9]	pest or weed control at 250 g/ha (Setaria faberi (SETFA) [10])	pest or weed control at 250 g/ha [11]	pest or weed control at 250 g/ha (Avena fatua (AVEFA) [12])
CCc1ccc(-c2ccccc2)cc1C1=C(O)[C@H]2CC[C@H](C2)C1=O (single isomer, unassigned) [Compound T2]	0%	10%	60%	30%	0%	0%	10%	0%	100%	0%	0%	20%
Cc1ccc(-c2cccc(Cl)c2)cc1C1=C(O)[C@H]2CC[C@H](C2)C1=O (single isomer, unassigned) [Compound T7]	0%	0%	0%	0%	0%	0%	0%	0%	0%	10%	20%	10%
Cc1ccc(-c2ccc(Cl)c(C(F)(F)F)c2)cc1C1=C(O)[C@H]2CC[C@H](C2)C1=O (single isomer, unassigned) [Compound T8]	0%	10%	0%	30%	30%	0%	50%	50%	100%	70%	70%	30%
Cc1ccc(-c2ccc(Cl)c(Cl)c2)cc1C1=C(O)[C@H]2CC[C@H](C2)C1=O (single isomer, unassigned) [Compound T10]	20%	10%	0%	0%	0%	10%	20%	50%	50%	80%	30%	0%
COc1cc(Cl)ccc1-c1ccc(C)c(C2=C(O)[C@H]3CC[C@H](C3)C2=O)c1 (single isomer, unassigned) [Compound T11]	0%	20%	20%	10%	0%	20%	10%	10%	10%	10%	0%	0%
Cc1ccc(-c2ccc(Cl)cc2Cl)cc1C1=C(O)[C@H]2CC[C@H](C2)C1=O (single isomer, unassigned) [Compound T12]	0%	0%	70%	80%	60%	10%	70%	30%	40%	60%	100%	40%
Cc1cc(-c2ccc(C)c(C3=C(O)[C@H]4CC[C@H](C4)C3=O)c2)ccc1Cl (single isomer, unassigned) [Compound T24]	–	–	30%	0%	0%	–	10%	40%	80%	20%	70%	0%
Cc1ccc(-c2ccc(Cl)c(C#N)c2)cc1C1=C(O)[C@H]2CC[C@H](C2)C1=O (single isomer, unassigned) [Compound T25]	0%	20%	0%	30%	80%	0%	20%	0%	50%	80%	80%	0%
Cc1ccc(-c2ccc(Cl)cc2C)cc1C1=C(O)[C@H]2CC[C@H](C2)C1=O (single isomer, unassigned) [Compound T26]	10%	20%	60%	60%	10%	0%	20%	0%	30%	50%	0%	0%
Cc1ccc(-c2ccc(Cl)cc2F)cc1C1=C(O)[C@H]2CC[C@H](C2)C1=O (single isomer, unassigned) [Compound T27]	30%	30%	80%	90%	70%	70%	70%	60%	80%	100%	80%	50%
Cc1ccc(-c2cc(Cl)cc(Cl)c2)cc1C1=C(O)[C@H]2CC[C@H](C2)C1=O (single isomer, unassigned) [Compound T28]	0%	20%	0%	10%	0%	10%	20%	0%	0%	0%	0%	10%
Cc1ccc(-c2ccc(F)c(Cl)c2)cc1C1=C(O)[C@H]2CC[C@H](C2)C1=O (single isomer, unassigned) [Compound T29]	0%	30%	50%	60%	10%	0%	20%	10%	20%	70%	0%	0%
COc1ccc(Cl)cc1-c1ccc(C)c(C2=C(O)[C@H]3CC[C@H](C3)C2=O)c1 (single isomer, unassigned) [Compound T30]	10%	10%	0%	0%	0%	10%	0%	0%	0%	0%	0%	0%
Cc1ccc(-c2ccc(Cl)c(F)c2)cc1C1=C(O)[C@H]2CC[C@H](C2)C1=O (single isomer, unassigned) [Compound T31]	20%	30%	70%	80%	70%	0%	30%	70%	80%	100%	70%	40%
CC(=O)OC1=C(c2c(C)cc(-c3ccccc3)cc2C)C(=O)[C@@H]2CC[C@H]1C2 [Compound P1]	20%	20%	60%	70%	60%	0%	60%	30%	100%	70%	70%	30%
